Measured values from ChEMBL document CHEMBL1201862, “PubChem BioAssay data set” (2004).
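48-hour exposure; five concentrations; linearly interpolated endpoints. Abbreviation: GI50, concentration required for 50% inhibition of growth.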 Calls of active or inactive are those of the source. Cut-off read from the data, not from the text of the source: active = GI50 up to about 1.1 µM and inactive = higher.

Assays:
Test in all cases: NCI anticancer screen, dose series, 48 h
786-0 = test system: 786-0
A498 = test system: A498
A549 = test system: A549
ACHN = test system: ACHN
BT-549 = test system: BT-549
CAKI-1 = test system: CAKI-1
COLO 205 = test system: COLO 205
DU-145 = test system: DU-145
EKVX = test system: EKVX
HCC 2998 = test system: HCC 2998
HCT-116 = test system: HCT-116
HCT-15 = test system: HCT-15
HL-60 = test system: HL-60
HOP-62 = test system: HOP-62
HOP-92 = test system: HOP-92
Hs-578T = test system: Hs-578T
IGROV-1 = test system: IGROV-1
K562 = test system: K562
KM12 = test system: KM12
LOX IMVI = test system: LOX IMVI
M14 = test system: M14
MCF7 = test system: MCF7
MDA-MB-231 = test system: MDA-MB-231
MDA-MB-435 = test system: MDA-MB-435
MDA-N = test system: MDA-N
Malme-3M = test system: Malme-3M
NCI-H226 = test system: NCI-H226
NCI-H23 = test system: NCI-H23
NCI-H460 = test system: NCI-H460
NCI/ADR-RES = test system: NCI/ADR-RES
OVCAR-3 = test system: OVCAR-3
OVCAR-4 = test system: OVCAR-4
OVCAR-5 = test system: OVCAR-5
OVCAR-8 = test system: OVCAR-8
PC-3 = test system: PC-3
RPMI-8226 = test system: RPMI-8226
RXF 393 = test system: RXF 393
SF-268 = test system: SF-268
SF-295 = test system: SF-295
SF-539 = test system: SF-539
SK-MEL-28 = test system: SK-MEL-28
SK-MEL-2 = test system: SK-MEL-2
SK-MEL-5 = test system: SK-MEL-5
SK-OV-3 = test system: SK-OV-3
SN12C = test system: SN12C
SNB-19 = test system: SNB-19
SNB-75 = test system: SNB-75
SR = test system: SR
SW-620 = test system: SW-620
T47D = test system: T47D
TK-10 = test system: TK-10
U-251 = test system: U-251
UACC-257 = test system: UACC-257
UACC-62 = test system: UACC-62
UO-31 = test system: UO-31
CCRF-CEM = test system: CCRF-CEM
HT-29 = test system: HT-29
NCI-H522 = test system: NCI-H522
MOLT-4 = test system: MOLT-4

Measured: GI50

CCOC(=O)c1c2ccccc2n2c(=O)n(-c3ccc(OC)cc3)nnc12
> 58.6 µM: HCT-15
active: MCF7 0.555 µM
inactive: 786-0 17 µM | A498 44.3 µM | A549 46.5 µM | ACHN 31.1 µM | BT-549 26.5 µM | CAKI-1 > 45.7 µM | COLO 205 > 100 µM | DU-145 75.2 µM | EKVX 32.1 µM | HCC 2998 > 100 µM | HCT-116 54.8 µM | HL-60 21.1 µM | HOP-62 21.1 µM | HOP-92 21.7 µM | Hs-578T 19.9 µM | IGROV-1 17.5 µM | K562 25.9 µM | KM12 88.1 µM | LOX IMVI 17.3 µM | M14 51.1 µM | MDA-MB-231 > 45.5 µM | MDA-MB-435 > 37.1 µM | MDA-N > 100 µM | Malme-3M 30.5 µM | NCI-H226 23.3 µM | NCI-H23 34.4 µM | NCI-H460 > 95.1 µM | NCI/ADR-RES 31 µM | OVCAR-3 34.4 µM | OVCAR-4 22.5 µM | OVCAR-5 46.1 µM | OVCAR-8 20.6 µM | PC-3 18.2 µM | RPMI-8226 25.1 µM | RXF 393 19 µM | SF-268 16.2 µM | SF-295 20.3 µM | SF-539 19.5 µM | SK-MEL-28 65.6 µM | SK-MEL-2 22.8 µM | SK-MEL-5 58.5 µM | SK-OV-3 26.7 µM | SN12C > 83.8 µM | SNB-19 34.2 µM | SNB-75 14.5 µM | SR 38.7 µM | SW-620 > 42.4 µM | T47D 24.3 µM | TK-10 46.6 µM | U-251 16.9 µM | UACC-257 60.5 µM | UACC-62 11.2 µM | UO-31 29.4 µM

O=C(NCCN(CCNC(=O)c1cccc(=O)n1O)CCNC(=O)c1cccc(=O)n1O)c1cccc(=O)n1O
> 100 µM: HCT-15
inactive: A498 > 100 µM | A549 > 100 µM | ACHN > 100 µM | BT-549 > 100 µM | CAKI-1 > 100 µM | CCRF-CEM > 100 µM | COLO 205 > 100 µM | DU-145 > 100 µM | HCC 2998 > 100 µM | HL-60 > 100 µM | HOP-62 > 100 µM | HOP-92 > 100 µM | HT-29 > 100 µM | Hs-578T > 100 µM | IGROV-1 > 100 µM | K562 > 100 µM | KM12 > 100 µM | M14 > 100 µM | MCF7 > 100 µM | MDA-MB-231 > 100 µM | MDA-MB-435 > 100 µM | MDA-N > 100 µM | Malme-3M > 100 µM | NCI-H226 > 100 µM | NCI-H23 > 100 µM | NCI-H460 > 100 µM | NCI-H522 > 100 µM | NCI/ADR-RES > 100 µM | OVCAR-3 > 100 µM | OVCAR-4 > 100 µM | OVCAR-5 > 100 µM | OVCAR-8 > 100 µM | PC-3 > 100 µM | RPMI-8226 > 100 µM | RXF 393 > 100 µM | SF-268 > 100 µM | SF-295 > 100 µM | SF-539 > 100 µM | SK-MEL-28 > 100 µM | SK-MEL-2 > 100 µM | SK-MEL-5 > 100 µM | SK-OV-3 > 100 µM | SN12C > 100 µM | SNB-19 > 100 µM | SNB-75 > 100 µM | SR > 100 µM | SW-620 > 100 µM | T47D > 100 µM | TK-10 > 100 µM | U-251 > 100 µM | UACC-257 > 100 µM | UACC-62 > 100 µM | UO-31 > 100 µM

CC(=O)Nc1c(S(=O)(=O)c2ccccc2)c(C)c(C)n1CCN(C)C
> 100 µM: HCT-15
inactive: 786-0 > 100 µM | A498 > 100 µM | A549 > 100 µM | ACHN > 100 µM | BT-549 > 100 µM | CAKI-1 > 100 µM | CCRF-CEM > 100 µM | COLO 205 > 100 µM | DU-145 > 100 µM | EKVX > 100 µM | HCC 2998 > 100 µM | HCT-116 > 100 µM | HL-60 > 100 µM | HOP-92 > 100 µM | HT-29 > 100 µM | Hs-578T > 100 µM | IGROV-1 > 100 µM | K562 > 100 µM | KM12 > 100 µM | M14 70.3 µM | MCF7 > 100 µM | MDA-MB-231 > 100 µM | MDA-MB-435 > 100 µM | MDA-N > 100 µM | MOLT-4 > 100 µM | Malme-3M > 100 µM | NCI-H226 > 100 µM | NCI-H23 > 100 µM | NCI-H460 > 100 µM | NCI-H522 > 100 µM | NCI/ADR-RES > 100 µM | OVCAR-3 > 100 µM | OVCAR-4 > 100 µM | OVCAR-5 > 100 µM | OVCAR-8 > 100 µM | PC-3 > 100 µM | RPMI-8226 > 100 µM | RXF 393 > 100 µM | SF-268 > 100 µM | SF-295 > 100 µM | SF-539 > 100 µM | SK-MEL-28 > 100 µM | SK-MEL-2 > 100 µM | SK-MEL-5 > 100 µM | SK-OV-3 > 100 µM | SN12C > 100 µM | SNB-19 > 100 µM | SNB-75 > 100 µM | SR > 100 µM | SW-620 > 100 µM | T47D > 100 µM | TK-10 > 100 µM | U-251 > 100 µM | UACC-257 > 100 µM | UACC-62 > 100 µM | UO-31 > 100 µM
